Measurements from patent US20010004643A1, “Pharmaceutical composition with sotalol combination and their use in treatment of cardiac ailments” (priority 1999, published 2001).
Entries after “also recorded” stand apart in the source; their conditions may differ. Marks after values point to notes of the source that are not given here.

Tests used:
[1] = test system: ouabain induced arrhythmia (VT, VF, mortality); assay: Ouabain induced arrhythmia model in guinea pig; assay type: in vivo; details: for actual incidence of mortality (value in parenthesis): 60 min; for actual incidence of mortality (value in parenthesis) / actual incidence of VF (value in parenthesis) / actual incidence of VT (value in parenthesis): number of animals of the group; for % INCIDENCE OF MORTALITY: mortality at 60 min; for deaths due to conduction block (60 min), actual incidence (value in parenthesis) / deaths due to tachyarrhythmia (60 min), actual incidence (value in parenthesis): number of animals; for % INCIDENCE OF VF / % INCIDENCE OF VT: ouabain 240 μg/kg in three doses, observed one hour; for DEATHS DUE TO CONDUCTION BLOCK (60 MIN) Percentage / DEATHS DUE TO TACHYARRHYTHMIA (60 MIN) Percentage: percentage deaths out of total mortality; for dose at which complete protection against VT was observed / dose that completely protected against VF: guinea pig, in vivo
From the text: Method: Guinea pigs (Dunken Hartley) of either sex weighing between 400 and 500 g were used for the study. The animals were anesthetized with urethane (1.25 g/kg. i.p.). The left common carotid artery and left jugular vein were cannulated for arterial blood pressure monitoring and intravenous access respectively. Lead II electrocardiogram, arterial blood pressure, mean arterial blood pressure (MABP), heart rate were monitored throughout the experiment.
After initial surgical preparations and allowing 30 minutes for the animal to stabilise the first dose of ouabain (90 μg/kg) was administered over a period of one minute. After the interval of thirty minutes, second dose of ouabain (60 μg/kg) was administered over a period of one minute. One minute after this dose, 0.5 ml saline (in control experiments) was administered over a period of one minute. After an interval of 10 minutes a third dose of ouabain (90 μg/kg) was administered over a period of one minute. […] The test compounds were administered to animals in test group in place of saline to evaluate their antiarrhythmic potential. From the ECG recordings, the incidence of VT, VF and mortality were recorded. The doses of ratios of sotalol isomers studied were 0.1, 0.5 and 2.5 mg/kg.
Interpretation of ECG recordings: Minor disturbance in rhythm was not considered while evaluating ventricular tachyarrhythmias. A run of more than 3 ventricular ectopic beats having wide QRS complexes associated with partial haemodynamic collapse was considered as Ventricular Tachycardia (VT). Total morphological irregularity of repetitive complexes for at least six cycles associated with complete haemodynamic collapse was considered as Ventricular Fibrillation (VF). Successful arrhythmia protection was defined as no occurrence of VT and VF from the injection of saline/test drug till the end of the experiment.
Statistics: Chi square test with continuity correction at 95% confidence limit was applied to find out the statistical significance between control and test groups for incidence of VT, VF and mortality. Whenever, any of the value in a cell was less than 5, Fischer's exact probability test was used.
Results: Different ratios of sotalol in the dose range from 0.02 mg/kg to 12.5 mg/kg were studied in individual groups of animals. In all 18 groups were studied and at least 6 animals were used in each group. In control animals ouabain 240 μg/kg in three divided doses induced reproducible ventricular tachyarrhythmias in guinea pigs. It was observed that ventricular arrhythmias appeared after the administration of the third dose. Guinea pigs which responded early i.e. before or within 1 min. of administration of the second dose, were considered early responders and were not included in the study. […] In the study, control experiments were carried out randomly interspersed in test groups. Among the 42 control animals the incidence of VT was 81%, incidence of VF was 71.4% and the incidence of mortality at 60 minutes was 61.9%.

[2] = test system: beta adrenergic blockade, isolated right auricle preparation of rabbit; assay: Beta blocking potency (pA2 against isoprenaline) in isolated rabbit right auricle; details: isoprenaline chronotropic response, Schild's plot, listed as 4:1
Procedure: Estimation of the beta blockade of various ratios of d- and l- isomers of sotalol was carried out in the isolated right auricle preparation of rabbit. The spontaneously beating right atrium was dissected and mounted in a 20 ml tissue bath. The resting tension on the atria was set at 1 g. The contractions were recorded using a force displacement transducer. The spontaneous contractions of the right atria were recorded isometrically and the heart rate was obtained as a derived parameter using a ratemeter that gave the output in beats per minute. Six different ratios of d and l isomers were investigated (1:1, 2:1, 3:1, 4:1, 5:1 and 1:0). Dose-response-curves (DRC) for isoprenaline in the isolated atria, using the chronotropic response were determined by cumulative addition of isoprenaline. The pA2 values of each of the ratios were estimated using the classical Schild's plot (Schild, 1957) and the values are shown in Table 1.

CC(C)NCC(O)c1ccc(NS(C)(=O)=O)cc1 (stereo not drawn) [2.5:1 RATIO, N-[4-[1-hydroxy-2-[(1-methylethyl)amino]ethyl]phenyl] methane sulfonamide] was tested, and the “mortality compared to 2:1 ratio at the same dose” value ([1]; 0.5 mg/kg) was “lower”, the “protection against VF” value ([1]; 0.5 mg/kg) was “some protection, it was not complete” and the “actual incidence of mortality (value in parenthesis)” value (from here on “actual incidence of mortality”) ([1]; 0.5 mg/kg) was “(2)”. The “protection against ouabain induced VT” value ([1]; 0.5 mg/kg, listed as 2.5:1 ratio (d:l)) was “protection was not complete”, the “% INCIDENCE OF MORTALITY” value ([1]; 0.5 mg/kg) was 33.3% and the “deaths due to conduction block (60 min), actual incidence (value in parenthesis)” value ([1]; 0.5 mg/kg) was “(2)”. The “deaths due to tachyarrhythmia (60 min), actual incidence (value in parenthesis)” value ([1]; 0.5 mg/kg) was “(0)”, the “actual incidence of VF (value in parenthesis)” value (“actual incidence of VF” below) ([1]; 0.5 mg/kg) was “(2)” and the “actual incidence of VT (value in parenthesis)” value (“actual incidence of VT” below) ([1]; 0.5 mg/kg) was “(2)*”. The “% INCIDENCE OF VF” value ([1]; 0.5 mg/kg) was 33.3%, the “% INCIDENCE OF VT” value ([1]; 0.5 mg/kg) was 33.3% and the “DEATHS DUE TO CONDUCTION BLOCK (60 MIN) Percentage” value ([1]; 0.5 mg/kg) was 100.0%. For the same compound, the “DEATHS DUE TO TACHYARRHYTHMIA (60 MIN) Percentage” value ([1]; 0.5 mg/kg) was 00.0%, the protection against mortality ([1]; 2.5 mg/kg) was “protected significantly” and the “protection from deaths due to tachyarrhythmias” value ([1]; 2.5 mg/kg) was “completely protected”. For the same compound, the “protection against arrhythmias (VT and VF)” value (“protection … (VT and VF)” below) ([1]; 2.5 mg/kg, listed as 2.5:1) was “completely protects; also recorded: complete protection”, the “% INCIDENCE OF MORTALITY” value ([1]; 2.5 mg/kg) was 16.6% and the “% INCIDENCE OF MORTALITY” value ([1]; 2.5 mg/kg, listed as 2.5:1) was 16.6%. For the same compound, the “deaths due to conduction block (60 min), actual incidence (value in parenthesis)” value ([1]; 2.5 mg/kg) was “(1)”, the “deaths due to tachyarrhythmia (60 min), actual incidence (value in parenthesis)” value ([1]; 2.5 mg/kg) was “(0)” and the “actual incidence of VF” value ([1]; 2.5 mg/kg) was “(0)*”. For the same compound, the “actual incidence of VT” value ([1]; 2.5 mg/kg) was “(0)*”, the “% INCIDENCE OF VF” value ([1]; 2.5 mg/kg) was 0.0% and the “% INCIDENCE OF VT” value ([1]; 2.5 mg/kg) was 0.0%. For the same compound, the “DEATHS DUE TO CONDUCTION BLOCK (60 MIN) Percentage” value ([1]; 2.5 mg/kg) was 100.0%, the “DEATHS DUE TO TACHYARRHYTHMIA (60 MIN) Percentage” value ([1]; 2.5 mg/kg) was 00.0% and the “dose at which complete protection against VT was observed” value ([1]; listed as 2.5:1 ratio (d:l)) was 2.5 mg/kg. The “dose that completely protected against VF” value ([1]; listed as 2.5:1 ratio (d:l)) was 2.5 mg/kg, the cause of deaths ([1]; no dose stated) was “due to conduction abnormalities” and the “mortality compared with control groups” value ([1]; no dose stated) was “less than that of control groups”.

For CC(C)NCC(O)c1ccc(NS(C)(=O)=O)cc1 (stereo not drawn) [4:1 RATIO, N-[4-[1-hydroxy-2-[(1-methylethyl)amino]ethyl]phenyl] methane sulfonamide], the “pA2 Mean” value [2] was 6.01, the “actual incidence of mortality” value ([1]; 0.5 mg/kg) was “(2)” and the “% INCIDENCE OF MORTALITY” value ([1]; 0.5 mg/kg) was 33.3%. The “deaths due to conduction block (60 min), actual incidence (value in parenthesis)” value ([1]; 0.5 mg/kg) was “(1)”, the “deaths due to tachyarrhythmia (60 min), actual incidence (value in parenthesis)” value ([1]; 0.5 mg/kg) was “(1)” and the “actual incidence of VF” value ([1]; 0.5 mg/kg) was “(6)”. For the same compound, the “actual incidence of VT” value ([1]; 0.5 mg/kg) was “(6)”, the “% INCIDENCE OF VF” value ([1]; 0.5 mg/kg) was 100.0% and the “% INCIDENCE OF VT” value ([1]; 0.5 mg/kg) was 100.0%. The “DEATHS DUE TO CONDUCTION BLOCK (60 MIN) Percentage” value ([1]; 0.5 mg/kg) was 50.0%, the “DEATHS DUE TO TACHYARRHYTHMIA (60 MIN) Percentage” value ([1]; 0.5 mg/kg) was 50.0% and the “protection against VF” value ([1]; 2.5 mg/kg) was “some protection”. For the same compound, the “protection against ouabain induced VT” value ([1]; 2.5 mg/kg) was “some protection”, the “actual incidence of mortality” value ([1]; 2.5 mg/kg) was “(2)” and the “protection … (VT and VF)” value ([1]; 2.5 mg/kg, listed as 4:1) was “could not protect”. For the same compound, the “% INCIDENCE OF MORTALITY” value ([1]; 2.5 mg/kg) was 33.3%, the “% INCIDENCE OF MORTALITY” value ([1]; 2.5 mg/kg, listed as 4:1) was 33.3% and the “deaths due to conduction block (60 min), actual incidence (value in parenthesis)” value ([1]; 2.5 mg/kg) was “(2)”. The “deaths due to tachyarrhythmia (60 min), actual incidence (value in parenthesis)” value ([1]; 2.5 mg/kg) was “(0)”, the “actual incidence of VF” value ([1]; 2.5 mg/kg) was “(2)” and the “actual incidence of VT” value ([1]; 2.5 mg/kg) was “(2)*”. The “% INCIDENCE OF VF” value ([1]; 2.5 mg/kg) was 33.3%, the “% INCIDENCE OF VT” value ([1]; 2.5 mg/kg) was 33.3% and the “% INCIDENCE OF VF” value ([1]; 2.5 mg/kg, listed as 4:1) was 33.3%. The “% INCIDENCE OF VT” value ([1]; 2.5 mg/kg, listed as 4:1) was 33.3%, the “DEATHS DUE TO CONDUCTION BLOCK (60 MIN) Percentage” value ([1]; 2.5 mg/kg) was 100.0% and the “DEATHS DUE TO TACHYARRHYTHMIA (60 MIN) Percentage” value ([1]; 2.5 mg/kg) was 00.0%. For the same compound, the “protection … (VT and VF)” value ([1]; 12.5 mg/Kg) was “could protect”, the “actual incidence of mortality” value ([1]; 12.5 mg/kg) was “(4)” and the “% INCIDENCE OF MORTALITY” value ([1]; 12.5 mg/kg) was 66.6%. The “% INCIDENCE OF MORTALITY” value ([1]; 12.5 mg/kg, listed as 4:1 ratio) was 66.6%, the “deaths due to conduction block (60 min), actual incidence (value in parenthesis)” value ([1]; 12.5 mg/kg) was “(3)” and the “deaths due to tachyarrhythmia (60 min), actual incidence (value in parenthesis)” value ([1]; 12.5 mg/kg) was “(1)”. For the same compound, the “actual incidence of VF” value ([1]; 12.5 mg/kg) was “(0)*”, the “actual incidence of VT” value ([1]; 12.5 mg/kg) was “(0)*” and the “% INCIDENCE OF VF” value ([1]; 12.5 mg/kg) was 00.0%. For the same compound, the “% INCIDENCE OF VT” value ([1]; 12.5 mg/kg) was 00.0%, the “DEATHS DUE TO CONDUCTION BLOCK (60 MIN) Percentage” value ([1]; 12.5 mg/kg) was 75.0% and the “DEATHS DUE TO TACHYARRHYTHMIA (60 MIN) Percentage” value ([1]; 12.5 mg/kg) was 25.0%. For the same compound, the mortality ([1]; effective dose of 12.5 mg/kg) was “significantly high”, the “dose at which complete protection against VT was observed” value ([1]; listed as 4:1 ratio (d:l)) was 12.5 mg/kg and the “dose that completely protected against VF” value ([1]; listed as 4:1 ratio (d:l)) was 12.5 mg/kg.
